Data set [1] has as its system BCRP-transfected cell variant MCF-7/BCRP clone 8. The data set is described as follows: Mitoxantrone accumulation assay (flow cytometry). In kind it is cell-based, human. As to conditions: 1 µM GF120918; compared to drug accumulation level in the untreated, parental control cell line (Fig 4B). As for the experimental part:
(§1) Cellular mitoxantrone accumulation was determined according to the procedure described in Lage H et al., FEBS Lett 2001;503:179-84. Briefly, 4 x 10^5 cells were seeded out in 6-well plates 78 hours prior to the experiment. Incubation with mitoxantrone (0, 1,5 and 10 µg/ml) was performed for 60 minutes at 37°C and 70-80 % cellular confluence. For kinetics of intracellular enrichment of mitoxantrone, cells were exposed to 10 µg/ml mitoxantrone for 0, 5, 10 and 60 min. Cells were washed with ice-cold PBS, trypsinized and resuspended in 4 °C PBS at a concentration of 4 x 10^5 cells/ml. Intracellular fluorescence of mitoxantrone was determined by flow cytometry (Becton-Dickinson, San Jose, CA). The cells were excited at 480 nm and emission was measured at 630 nm. A minimum of 10^4 cells was analyzed for each sample. All assays were performed at least in three independent experiments, each time with triplicate wells.
(§2) To provide confirmation that the observed resensitization to mitoxantrone of BCRP-overexpressing cells was indeed the result of BCRP inhibition by TPS-A, a mitoxantrone accumulation assay was performed. The known so-called "multispecific" MDR modulator GF120918, inhibiting P-gp- and BCRP activity, was used as a positive control for P-gp- and BCRP antagonism.
In general terms: Flow cytometry measures light scatter and fluorescence of single cells or particles in a stream.

The test system of the next data set is MCF-7/AdrVp. The data set is described as follows: Mitoxantrone accumulation assay (flow cytometry). In kind it is cell-based, human. The note with it: 1 µM GF120918. As for the experimental part:
as §1, §2

For data set [2], the system named is parental, drug-sensitive gastric carcinoma cell variant EPG85-257P. Nature of the data set: Mitoxantrone accumulation assay (flow cytometry). In kind it is cell-based, human. The note with it: GF120918 (Fig 4). As for the experimental part:
as §1, §2

In data set [3] the test system is drug-sensitive, parental cell line MCF-7. Nature of the data set: Mitoxantrone accumulation assay (flow cytometry). The data set is classed as cell-based, human. As to conditions: increasing modulator concentrations. As for the experimental part: as §1, §2
Data set [4] relates to P-gp. Nature of the data set: Mitoxantrone accumulation assay (flow cytometry). The data set is classed as cell-based, human. The note with it: human, EPG85-257RDB cells (P-gp-expressing, classical MDR variant), probe mitoxantrone; 1 µM GF120918 (Fig 4); read-out: inhibition of mitoxantrone pump activity. As for the experimental part:
as §1, §2

Another data set concerns BCRP. Nature of the data set: Mitoxantrone accumulation assay (flow cytometry). In kind it is cell-based, human. The note with it: human, probe mitoxantrone; 1 µM GF120918 (Fig 4); read-out: mitoxantrone accumulation inhibiting effect. As for the experimental part: as §1, §2
The subject of data set [5] is drug-sensitive and drug-resistant gastric and breast cancer cell lines. The data set is described as follows: Cytotoxicity of the MDR modulators alone (SRB proliferation assay). In kind it is cell-based, human. As for the experimental part: (§3) Modulation of chemoresistance was tested using a proliferation assay based on sulforhodamine B (SRB), a protein-binding reagent (Skehan P et al., J Natl Cancer Inst 1990;82:1107-12), as described in Lage H et al., Int J Hyperthermia 2000;16:291-303; Lage H et al., FEBS Lett 2001;503:179-84; Lage H et al., FEBS Lett 2001;494:54-9. In each experiment, 350 cells per well were seeded in the presence or absence of TPS-A in 96-well plates in complete medium and allowed to attach overnight. Mitoxantrone or daunorubicin were added in a dilution series in triplicate wells. After 5 days, when unselected wells were still subconfluent, incubation was terminated by replacing the medium with 10 % trichloroacetic acid, followed by incubation at 4 °C for 1 h. After samples were washed 5 times with water and air-dried, 50 µl 0.4 % SRB (Sigma, St. Louis, MO) in 1 % acetic acid was added and samples were incubated for 10 min at room temperature. Unbound dye was eliminated by washing the plates 5 times with 1 % acetic acid. After air-drying and re-solubilisation of the protein-bound dye in 10 mM Tris-HCl (pH 8.0), absorbance was quantified at 562.5 nm. To determine the IC50-value, the absorbance difference of control cells without drug was set to be 100 %. Linear regression of data was done for the linear part of the curve, and IC50-values were calculated from multiple, at least three independent experiments for each cell line.
The cytotoxicity of the MDR modulators TPS-A and GF120918 on drug-sensitive and drug-resistant gastric and breast cancer cell lines was initially assessed.
In general terms: The SRB assay estimates cell density from bound dye.

Data set [6] deals with gastric and breast carcinoma cell variants. Nature of the data set: Modulation of chemoresistance to mitoxantrone or daunorubicin (SRB proliferation assay, IC50/DMF). The data set is classed as cell-based, human. As for the experimental part: as §3
The cellular sensitivity to mitoxantrone and daunorubicin was assessed by determining the IC50 values without or with increasing concentrations of TPS-A or GF120918 as a positive control in the different cancer cell variants. Table 1 presents the data of TPS-A reversal of mitoxantrone and daunorubicin resistance in different gastric and breast carcinoma cell variants, respectively. […] In each case, the equation DMF=(IC50 (-CS))/(IC50 (+CS)) [formula] was used to calculate the dose modifying factor (DMF), comparing the IC50 values in the presence (+CS) or absence (-CS) of the corresponding chemosensitizer (CS) TPS-A or GF120918.

Data set [7] addresses P-gp (Homo sapiens, UniProt P08183). The note with it: literature (Hyafil F et al., Cancer Res 1993); cited from earlier work.
A further data set relates to EPG85-257RDB cells. Nature of the data set: Modulation of chemoresistance to daunorubicin (SRB proliferation assay, IC50/DMF). The data set is classed as cell-based, human. As to conditions: GF120918; classical MDR, P-gp-expressing cells (Table 2, Figure 3B). As for the experimental part: as §3, with “After samples were washed 5 times with water and air-dried, 50 µl 0.4 % SRB (Sigma, St. Louis, MO) in 1 % acetic acid was added and samples were incubated for 10 min at room temperature. Unbound dye was eliminated by washing the plates 5 times with 1 % acetic acid.” left out, “To determine the IC50-value, the absorbance difference of control cells without drug was set to be 100 %.” left out
The cellular sensitivity to mitoxantrone and daunorubicin was assessed by determining the IC50 values without or with increasing concentrations of TPS-A or GF120918 as a positive control in the different cancer cell variants. […]

The subject of data set [8] is control cells (EPG85-257P). The data set is described as follows: C6-NBD-PS outward translocation assay. The data set is classed as cell-based, human. As to conditions: 10 µM inhibitor; 30 minutes at 37°C (Fig. 8). As for the experimental part: (§4) To measure redistribution of C6-NBD-PS from the cytoplasmic to the exoplasmic leaflet, labelling of the cytoplasmic leaflet is preconditional. Previously, we have introduced a method to achieve efficient labeling of the plasma membrane inner leaflet of the gastric carcinoma cell line EPG85-257 (Pohl, A., Lage, H., Müller, P., Pomorksi, T., and Herrmann. A. (2002) Biochem. J. 365, 259-268). Briefly, cells were preincubated with or without MDR inhibitors, labelled with 5 µM C6-NBD-PS, and incubated at 20°C for 30 minutes to allow inward movement of the NBD analogue. C6-NBD-PS remaining on the cell surface was extracted twice by incubation with 2% (w/v) BSA in mPBS for 10 minutes on ice. Before starting the outward translocation assay, the medium was removed, and cells were washed with ice-cold mPBS. For t=0', ice-cold medium containing 2% (w/v) BSA and 5 mM DFP ( = diisopropyl fluoro-phosphate) in mPBS with or without inhibitor was immediately added to the cell dish for 10 minutes. To measure C6-NBD-PS outward translocation, medium prewarmed to 37°C was added to the dish, and cells were incubated at 37°C for 30 minutes (t = 30'). Removal of the BSA-containing media and a second extraction with 2% BSA in mPBS for 10 minutes terminated incubations, followed by lipid analysis.
(§5) After the incubations, the second BSA back exchange medium was pooled with the first, and cells scraped into mPBS. For analysis of outward translocation and of metabolic conversion of C6-NBD-PS, lipids from both scraped cells and media were extracted with isopropanol/chloroform/(5.5:1, v/v) to prevent substantial loss into the aqueous phase. Samples were centrifuged at 780 g for 5 minutes, the supernatant transferred into new glass tubes and dried, dissolved in chloroform/methanol (1:1) and quantified spectroscopically. For C6-NBD-PC analysis, lipids from both cells and incubation media were extracted by the method of Bligh and Dyer (Bligh, E., and Dyer, W. (1959) Can. J Biochem. Physiol. 37, 911-917) using 20 mM acetic acid in the aqueous phase. After 2-D separation [I, chloroform/methanol/25% ammonium hydroxide (65:25:4, v/v); II, chloroform/acetone/methanol/acetic acid/water (10:4:2:2:1, v/v)] on thin layer chromatography plates, fluorescent lipid spots were visualized under ultraviolet light, scraped, and quantified as described before (Pomorski, T., Müller, P., Zimmermann, B., Burger, K., Devaux, P., and Herrmann, A. (1996) J. Cell Sci. 109, 687-698).

For data set [9], the system named is MDR1 Pgp overexpressing subline (EPG85-257RDB). The data set is described as follows: C6-NBD-PS outward translocation assay. The data set is classed as cell-based, human. As to conditions: 10 µM inhibitor; 30 minutes at 37°C (Fig. 8). As for the experimental part:
as §4, §5

In data set [10] the test system is BCRP overexpressing cells (EPG85-257RNOV). Nature of the data set: C6-NBD-PS outward translocation assay. The data set is classed as cell-based, human. The note with it: pretreatment with 10 µM inhibitor; 30 minutes at 37°C (Fig. 8). As for the experimental part:
as §4, §5

Sequence of P-gp (Homo sapiens, UniProt P08183) (P08183 whole entry): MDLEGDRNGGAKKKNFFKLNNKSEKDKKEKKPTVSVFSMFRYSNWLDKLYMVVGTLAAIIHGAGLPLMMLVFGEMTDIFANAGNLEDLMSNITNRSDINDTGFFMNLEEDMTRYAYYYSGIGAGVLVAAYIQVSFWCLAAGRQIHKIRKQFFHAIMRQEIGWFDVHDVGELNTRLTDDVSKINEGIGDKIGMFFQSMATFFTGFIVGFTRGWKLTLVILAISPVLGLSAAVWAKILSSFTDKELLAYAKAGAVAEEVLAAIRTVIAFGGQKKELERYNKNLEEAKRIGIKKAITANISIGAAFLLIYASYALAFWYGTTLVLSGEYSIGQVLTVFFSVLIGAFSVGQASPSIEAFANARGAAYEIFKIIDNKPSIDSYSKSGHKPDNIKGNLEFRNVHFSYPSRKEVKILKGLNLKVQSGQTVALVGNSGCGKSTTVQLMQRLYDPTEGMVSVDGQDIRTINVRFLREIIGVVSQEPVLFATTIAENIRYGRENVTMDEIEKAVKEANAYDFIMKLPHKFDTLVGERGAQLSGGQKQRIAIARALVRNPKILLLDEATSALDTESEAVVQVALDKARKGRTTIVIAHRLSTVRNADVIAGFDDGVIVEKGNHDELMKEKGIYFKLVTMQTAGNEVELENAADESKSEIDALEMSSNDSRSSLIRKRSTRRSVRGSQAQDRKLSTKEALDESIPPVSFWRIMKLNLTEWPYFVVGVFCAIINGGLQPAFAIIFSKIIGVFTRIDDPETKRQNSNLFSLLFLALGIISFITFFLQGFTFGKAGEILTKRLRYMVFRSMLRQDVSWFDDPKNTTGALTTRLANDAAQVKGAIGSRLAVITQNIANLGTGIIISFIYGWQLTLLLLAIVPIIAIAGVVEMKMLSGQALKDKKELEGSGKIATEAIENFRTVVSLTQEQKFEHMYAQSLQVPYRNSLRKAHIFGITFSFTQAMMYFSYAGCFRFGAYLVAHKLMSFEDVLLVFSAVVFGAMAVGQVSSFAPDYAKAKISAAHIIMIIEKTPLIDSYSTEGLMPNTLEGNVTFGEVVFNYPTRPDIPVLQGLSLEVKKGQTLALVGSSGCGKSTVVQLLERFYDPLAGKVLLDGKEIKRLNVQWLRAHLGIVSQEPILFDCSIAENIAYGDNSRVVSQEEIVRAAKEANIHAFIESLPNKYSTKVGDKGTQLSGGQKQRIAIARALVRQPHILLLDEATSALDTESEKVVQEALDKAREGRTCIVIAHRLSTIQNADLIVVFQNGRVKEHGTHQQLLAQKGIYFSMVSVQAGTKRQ

Turning to `COc1cc2c(cc1OC)CN(CCc1ccc(NC(=O)c3cccc4c(=O)c5cccc(OC)c5[nH]c34)cc1)CC2` [GF120918, reference compound], the “inhibition of the mitoxantrone pump activity” value in [1] was “completely”. Further, the “increase of drug accumulation with respect to control cells” value in the data set with MCF-7/AdrVp is 40%. Also, the “transporter inhibiting effect (mitoxantrone accumulation)” value in data set [2] is “very weak transporter inhibiting effect”. Further, the “effect on drug accumulation” value in [3] was “only a weak dosage-depending effect”. Besides, the inhibition at 1 µM in the data set with P-gp [4] was determined as 75%; with BCRP, 80%. For the same compound, the growth inhibitory effect entry in data set [5] (1 µM GF120918 alone, any of the drug-sensitive or drug-resistant cancer cell lines tested) is reported as “no growth inhibitory effect”. For the same compound, in [5] (multidrug-resistant tumor cell lines), the “cross-resistance to the MDR modulator” value is given as “No evidence of cross-resistance”. In addition, in data set [6] (1 µM GF120918, EPG85-257RNOV and EPG85-257RDB, same for MCF7/BCRP clone 8 and MCF-7/AdrVp), the “restoration of drug sensitivity (mitoxantrone resistance)” value is on record as “not sufficient to restore drug sensitivity completely”. For the same compound, the resensitization to mitoxantrone result in data set [6] (GF120918, BCRP- and P-gp-expressing stomach and mamma carcinoma-derived cell lines (Table 2, Figure 3A)) is given as “dose-depending resensitization”. Also, in data set [6] (GF120918, the other human gastric and breast cancer cell lines (not EPG85-257RDB)), the “effect on sensitivity to daunorubicin” value is “no significant effect”. Besides, the “concentration capable of restoring drug sensitivity (as low as)” value at P-gp [7] was 100 nM. Moreover, in the data set on EPG85-257RDB cells, the sensitization to daunorubicin entry is “considerable dose-depending sensitization”. Moreover, the “PS transport (C6-NBD-PS outward translocation)” value in [8] is on record as “did not affect PS transport significantly”. The “PS analogue outward translocation (MDR1 Pgp lipid transport activity)” value in data set [9] is “significant reduction”. Moreover, in data set [10], the “amount of C6-NBD-PS in the BSA containing medium (outward translocation)” value is “sharp and highly significant decrease”.

Values taken from patent EP1464336A1, “Use of tryprostatin A for the reversal of cancer drug resistance” (Humboldt-Universität zu Berlin, priority 2003, dated 2004).
